Measurements from US6812229B1, “Carbamate derivative and agricultural/horticultural fungicide” (Kumiai Chemical Industry Co., Ltd., priority 1999, dated 2004).

What was measured:
Erysiphe graminis = assay: Test for preventive effect on wheat powdery mildew; format: in vivo; settings: wheat seedlings (Norin-61-go), two-leaf stage, 500 ppm active ingredient, wettable powder, total diseased area of first leaves 10 days after inoculation
Protocol: 10 Wheat seeds (variety: Norin-61-go) were sown in each plastic pot having a diameter of 6 cm, and grown in a greenhouse. Wheat seedlings which reached a two-leaf stage were treated with 10 ml per pot of aqueous solutions of wettable powders prepared in accordance with Formulation Example 2, at a concentration of 500 ppm in terms of the active ingredients, and dried in the air. Then, the seedlings were inoculated with Erysiphe graminis spore and controlled in a greenhouse. 10 Days after the inoculation, the total diseased area of the first leaves in each pot was observed and evaluated on the basis of the standards shown in Table 21.

Septoria nodorum = assay: Test for preventive effect on Septoria leaf blotch of wheat; format: in vivo; settings: wheat seedlings (Norin-61-go), two-leaf stage, 50 ppm active ingredient, 10 ml per pot, evaluated 10 days after inoculation with Septoria nodorum
Source text: [table] 10 Wheat seeds (variety: Norin-61-go) were sown in each plastic pot having a diameter of 6 cm, and grown in a greenhouse. […] Then, the seedlings were inoculated with Septoria nodorum […] controlled in a greenhouse. 10 Days after the inoculation, the total diseased area of the first leaves in each pot was observed and evaluated on the basis of the standards shown in Table 21.

Botrytis cinerea = assay: Test for preventive effect on cucumber gray mold; format: in vivo; settings: cucumber seedlings (Sagami-hanziro), cotyledon stage, 500 ppm active ingredient, 10 ml per pot, evaluated 3 days after inoculation with Botrytis cinerea, 22° C moist chamber
Protocol: 4 cucumber seeds (variety: Sagami-hanziro) were sown in each plastic pot having a diameter of 6 cm and grown in a greenhouse. Cucumber young seedlings which reached a cotyledon stage were treated with 10 ml per pot of aqueous solutions of wettable powders prepared in accordance with Formulation Example 2, at a concentration of 500 ppm in terms of the active ingredients and dried in the air. Then, the seedlings were inoculated with Botrytis cinerea spore by putting a paper disc soaked with the spore suspension on the surface of the cucumber cotyledons, and the seedlings were immediately placed in a moist chamber of 22° C. 3 Days after the inoculation, the total diseased area of the cotyledons in each pot was observed and evaluated on the basis of the standards shown in Table 24.

melting point [°C]	Structure (SMILES)	Evaluation (Erysiphe graminis)	Evaluation (total diseased area of the first leaves) (Septoria nodorum)	Evaluation (total diseased area of the cotyledons) (Botrytis cinerea)
	CCON=C(C)c1ccc(Cl)c(CNC(=O)OC)c1 [A-49]	A (No diseased area)		
	COC(=O)NCc1cc(C(C)=NOCc2cccc(F)c2)ccc1Cl [A-82]	A (No diseased area)	B (Diseased area of less than 5%)	
	COC(=O)NCc1cc(C(C)=NOCc2cccc(C)c2)ccc1Cl [A-91]	A (No diseased area)	B (Diseased area of less than 5%)	
	COC(=O)NCc1cc(C(C)=NOCc2ccccc2)ccc1C [A-113]	A (No diseased area)	A (No diseased area)	
	C#CCON=C(C)c1ccc(Cl)c(CNC(=O)OC)c1 [A-61]	A (No diseased area)	B (Diseased area of less than 5%)	
	COC(=O)NCc1cc(C(C)=NOCc2ccc(C(C)(C)C)cc2)ccc1Cl [A-98]	A (No diseased area)	A (No diseased area)	
	COC(=O)NCc1cc(C(C)=NOCc2ccccc2F)ccc1Cl [A-81]	A (No diseased area)	B (Diseased area of less than 5%)	
124 to 127	COC(=O)NCc1cc(C(C)=NO)ccc1Cl [A-45, Methyl N-[2-chloro-5-(1-hydroxyiminoethyl)benzyl]carbamate]			
	COC(=O)NCc1cc(C(C)=NOCc2ccccc2C)ccc1Cl [A-90]	A (No diseased area)	A (No diseased area)	
	COC(=O)NCc1cc(C(C)=NOCc2ccc(C)cc2)ccc1Cl [A-92]	A (No diseased area)	B (Diseased area of less than 5%)	
	CON=C(C)c1cccc(CNC(=O)OC)c1 [A-40, Methyl N-[3-(1-methoxyiminoethyl)benzyl]carbamate]	A (No diseased area)		
	COC(=O)NCc1cc(C(C)=NOCCCc2ccccc2)ccc1Cl [A-62]	A (No diseased area)	B (Diseased area of less than 5%)	
	COC(=O)NCc1cc(C(C)=NOC(C)(C)C)ccc1Cl [A-55]	A (No diseased area)		
	COC(=O)NCc1cc(C(C)=NOCc2ccccc2Br)ccc1Cl [A-87]	A (No diseased area)	B (Diseased area of less than 5%)	
101 to 103	COC(=O)NCc1cc(C(C)=NOCc2ccc(F)cc2)ccc1Cl [A-83, Methyl N-{2-chloro-5-[1-(4-fluorobenzyloxyimino)ethyl]benzyl}carbamate]	A (No diseased area)	A (No diseased area)	
	C=CCON=C(C)c1cccc(CNC(=O)OC)c1 [A-37]	A (No diseased area)		
	COC(=O)NCc1cccc(C(C)=NOCc2ccccc2)c1 [A-38]	A (No diseased area)		
	COC(=O)NCc1cc(C(C)=NOCc2cccc(Br)c2)ccc1Cl [A-88]	A (No diseased area)	B (Diseased area of less than 5%)	
	COC(=O)NCc1cc(C(C)=NOC(C)C)ccc1Cl [A-51]	A (No diseased area)	B (Diseased area of less than 5%)	

melting point [°C]	Structure (SMILES)	Evaluation (Erysiphe graminis)	Evaluation (total diseased area of the first leaves) (Septoria nodorum)	Evaluation (total diseased area of the cotyledons) (Botrytis cinerea)
	COC(=O)NCc1cc(C=NOCc2ccccc2)ccc1C [A-112]	A (No diseased area)	B (Diseased area of less than 5%)	
	COC(=O)NCc1cc(C(C)=NOCC(=O)OC(C)(C)C)ccc1Cl [A-64]	B (Diseased area of less than 5%)	A (No diseased area)	
	COC(=O)NCc1cc(C(C)=NOCc2ccccc2C(F)(F)F)ccc1Cl [A-99]	A (No diseased area)	B (Diseased area of less than 5%)	
	CCCON=C(C)c1ccc(Cl)c(CNC(=O)OC)c1 [A-50]	A (No diseased area)		
	COC(=O)NCc1cc(C(C)=NOCc2cccc(Cl)c2)ccc1Cl (single isomer, unassigned) [A-85]	A (No diseased area)	B (Diseased area of less than 5%)	
	C=CCON=C(C)c1ccc(Cl)c(CNC(=O)OC)c1 [A-58]	A (No diseased area)	B (Diseased area of less than 5%)	
72 to 75	COC(=O)NCc1cc(C(C)=NOCc2cccc(C)n2)ccc1C [A-434, Methyl N-{2-methyl-5-[1-(6-methylpyridin-2-ylmethoxy)iminoethyl]benzyl}carbamate]			
	CCON=C(C)c1cccc(CNC(=O)OC)c1 [A-39]	A (No diseased area)		
	COC(=O)NCc1cc(C(C)=NOCc2ccccc2)ccc1Cl (single isomer, unassigned) [A-80]	A (No diseased area)	A (No diseased area)	
	COC(=O)NCc1cc(C(C)=NOCc2cccc(C(F)(F)F)c2)ccc1Cl [A-100]	A (No diseased area)		
	COC(=O)NCc1cc(C(C)=NOCc2ccccc2Cl)ccc1Cl (single isomer, unassigned) [A-84]	A (No diseased area)		
	COC(=O)NCc1cc(C(C)=NOCc2ccc(Cl)cc2)ccc1Cl (single isomer, unassigned) [A-86]	A (No diseased area)		
	CON=C(C)c1cccc(CON=C(C)c2ccc(Cl)c(CNC(=O)OC)c2)c1 [A-291]		A (No diseased area)	3
	CCON=C(c1ccccc1)c1cccc(CNC(=O)OC)c1 [A-43]	A (No diseased area)		
	COC(=O)NCc1cc(C(C)=NOCc2ccc(Br)cc2)ccc1Cl [A-89]	A (No diseased area)	B (Diseased area of less than 5%)	
104 to 107	CON=C(C#N)c1ccc(Cl)c(CNC(=O)OC)c1 [A-3, 2-[4-chloro-3-(methoxycarbonylaminomethyl)phenyl]-2-methoxyiminoacetonitrile]	A (No diseased area)	B (Diseased area of less than 5%)	
	COC(=O)NCc1cc(C(C)=NOCc2ccc(C(F)(F)F)cc2)ccc1Cl [A-101]	A (No diseased area)		
	C=CCON=C(c1ccccc1)c1cccc(CNC(=O)OC)c1 [A-41]	B (Diseased area of less than 5%)		
